Values after ≈ are worked out from the molar mass of the structure shown.

Among the data in patent EP0497091A1, “Bridged cyclic ketal derivatives” (GLAXO GROUP LIMITED, priority 1991, dated 1992) are IC50 and MIC values, retold here.

One assay addresses T1, squalene synthase (Rattus norvegicus, UniProt Q02769).
T1 construct: from tissue; host or cells: rat liver homogenate
T1 sequence (Q02769 1-416): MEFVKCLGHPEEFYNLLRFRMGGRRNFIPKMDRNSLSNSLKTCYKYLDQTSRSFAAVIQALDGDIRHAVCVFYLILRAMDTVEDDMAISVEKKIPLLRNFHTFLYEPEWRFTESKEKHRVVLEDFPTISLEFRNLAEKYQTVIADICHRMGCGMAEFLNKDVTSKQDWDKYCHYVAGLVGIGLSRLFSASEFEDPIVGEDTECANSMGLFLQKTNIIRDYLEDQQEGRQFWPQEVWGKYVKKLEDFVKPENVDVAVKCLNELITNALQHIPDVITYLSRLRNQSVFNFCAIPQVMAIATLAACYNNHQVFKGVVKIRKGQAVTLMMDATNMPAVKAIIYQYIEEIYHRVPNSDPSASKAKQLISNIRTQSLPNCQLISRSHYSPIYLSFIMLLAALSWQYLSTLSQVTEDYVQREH
In words: Inhibition of squalene synthase ([14C]squalene production from [2-14C]farnesylpyrophosphate). In kind it is biochemical. From the text:
A. Biller et al. in J. […] [¹⁴C]squalene is separated from unreacted substrate on thin layer chromatography plates and determined by liquid scintillation counting. […] Acta, Volume 877, 50-60 (1986) and modified to include measurement of cholesterol by high performance liquid chromatography (h.p.l.c.). […] A. […] [¹⁴C] Squalene was separated from unreacted substrate on thin layer chromatography plates and determined by liquid scintillation counting. Inhibition of squalene synthase was quantified by incubating rat liver homogenate with various concentrations of the test compound in the presence of [2-¹⁴C] farnesylpyrophosphate. The concentration of compound giving 50% inhibition of [¹⁴C] squalene production in a 30 minute assay was taken as the IC₅₀ value.

Assay [1] concerns clinically relevant pathogens. The assay can be described thus: In vitro antifungal activity, agar plate MIC determination. The format is cell-based. The conditions noted are these: Candida albicans. The procedure: The in vitro evaluation of the anti-fungal activity of compounds of the invention can be performed by determining the minimum inhibitory concentration (MIC) which is the concentration of the test compound in a suitable medium at which growth of a particular microorganism fails to occur.
[¹⁴C] Squalene was separated from unreacted substrate on thin layer chromatography plates and determined by liquid scintillation counting. Inhibition of squalene synthase was quantified by incubating rat liver homogenate with various concentrations of the test compound in the presence of [2-¹⁴C] farnesylpyrophosphate. The concentration of compound giving 50% inhibition of [¹⁴C] squalene production in a 30 minute assay was taken as the IC₅₀ value. […] In practice, a series of agar plates, each having the test compound incorporated at a particular concentration, was inoculated with a standard culture of a clinically relevant pathogen, for example Candida albicans, and each plate was then incubated at 37 °C for 24 to 48 hours depending on the pathogen.

For `C=C(CC[C@]12O[C@H](C(=O)O)[C@@](O)(C(=O)O)[C@](C(=O)O)(O1)[C@H](OC(=O)/C=C/[C@@H](C)C[C@@H](C)CC)[C@H]2O)[C@H](O)[C@H](C)Cc1ccccc1` (relative stereo) [Example 1, [1S-[1α(4S*,5S*),3α,4β,5α,6α(2E,4R*,6R*),7β]] 1-(4-Hydroxy-5-methyl-3-methylene-6-phenylhexyl)-4,6,7-trihydroxy-2,8-dioxabicyclo[3.2.1]octane-3,4,5-tricarboxylic acid, 6-(4,6-dimethyl-2-octenoate)], on squalene synthase, the IC50 (in general, the concentration that gives 50% inhibition) was under 100 nM. The MIC – broadly, the lowest concentration found to suppress growth – in assay [1] lay in the range of 0.1 to 31 µg/mL (≈ 0.154 to 47.8 µM).

`CC[C@H](C)C[C@H](C)CCC(=O)O[C@@H]1[C@@H](O)[C@@]2(C/C=C(\C)[C@@H](OC(C)=O)[C@H](C)Cc3ccccc3)O[C@H](C(=O)O)[C@@](O)(C(=O)O)[C@]1(C(=O)O)O2` (relative stereo) [Example 11, [1S-[1α[(E),4R*,5S*],3α,4β,5α,6α(4S*,6R*),7β]] 1-(4-Acetyloxy-3,5-dimethyl-6-phenyl-2-hexenyl)-4,6,7-trihydroxy-2,8-dioxabicyclo[3.2.1]octane-3,4,5-tricarboxylic acid, 6-(4,6-dimethyloctanoate)] registered a half-inhibitory concentration (IC50) against squalene synthase of under 100 nM. Also, the MIC in assay [1] lay within 0.1 to 31 µg/mL (≈ 0.144 to 44.7 µM).

In the case of `C=C(CC[C@]12O[C@H](C(=O)O)[C@@](O)(C(=O)O)[C@](C(=O)O)(O1)[C@H](OC(=O)CC13CC4CC(CC(C4)C1)C3)[C@H]2O)[C@@H](OC(C)=O)[C@H](C)Cc1ccccc1` (relative stereo) [Example 45, [1S-[1α(4R*,5S*),3α,4β,5α,6α,7β]] 1-(4-Acetyloxy-5-methyl-3-methylene-6-phenylhexyl)-4,6,7-trihydroxy-2,8-dioxabicyclo[3.2.1]octane-3,4,5-tricarboxylic acid, 6-[1-(tricyclo[3.3.1.1^3,7]decyl)acetate]], at squalene synthase, the IC50 is under 100 nM. The molecule further returned a minimal inhibitory concentration (MIC) in assay [1] of 0.1 to 31 µg/mL (≈ 0.14 to 43.4 µM).

On squalene synthase, `C=C(CC[C@]12O[C@H](C(=O)O)[C@@](O)(C(=O)O)[C@](C(=O)O)(O1)[C@H](OC(=O)CC=CCCCC)[C@H]2O)[C@@H](OC(C)=O)[C@H](C)Cc1ccccc1` (relative stereo) [Example 64, [1S-[1α(4R*,5S*),3α,4β,5α,6α,7β]] 1-(4-Acetyloxy-5-methyl-3-methylene-6-phenylhexyl)-4,6,7-trihydroxy-2,8-dioxabicyclo[3.2.1]octane-3,4,5-tricarboxylic acid, 6-[(E/Z)-3-octenoate]] returned an IC50 of under 100 nM. Further, the MIC in assay [1] lay in the range of 0.1 to 31 µg/mL (≈ 0.151 to 46.8 µM).

`CCC(C)CC(C)CCC(=O)OC1C(O)C2(CCC(O)C(O)C(C)Cc3ccccc3)OC(C(=O)O)C(O)(C(=O)O)C1(C(=O)O)O2` (stereo not drawn) [Example 18, [1S-[1α(3R*S*,4R*,5S*),3α,4β,5α,6α(4S*,6R*),7β]] 1-(3,4-Dihydroxy-5-methyl-6-phenylhexyl)-4,6,7-trihydroxy-2,8-dioxabicyclo[3.2.1]octane-3,4,5-tricarboxylic acid, 6-(4,6-dimethyloctanoate)] displayed an IC50 against squalene synthase of under 100 nM. The same molecule showed a minimum inhibitory concentration (MIC) in assay [1] of 0.1 to 31 µg/mL (≈ 0.153 to 47.3 µM).

On squalene synthase, `C=C(CCC12OC(C(=O)O)C(O)(C(=O)O)C(C(=O)O)(O1)C(OC(=O)C=CC(C)CC(C)CC)C2OC(C)=O)C(OC(C)=O)C(C)Cc1ccccc1` (stereo not drawn) [Example 24, [1S-[1α(4R*,5S*),3α,4β,5α,6α(2E,4R*,6R*),7β]] 7-Acetyloxy-1-(4-acetyloxy-5-methyl-3-methylene-6-phenylhexyl)-4,6-dihydroxy-2,8-dioxabicyclo[3.2.1]octane-3,4,5-tricarboxylic acid, 6-(4,6-dimethyl-2-octenoate)] displayed an IC50 of under 100 nM. In assay [1], this molecule came in with an MIC of 0.1 to 31 µg/mL (≈ 0.136 to 42.3 µM).

The molecule `C=C(CC[C@]12O[C@H](C(=O)O)[C@@](O)(C(=O)O)[C@](C(=O)O)(O1)[C@H](OC(=O)OCCCCCCCCC)[C@H]2O)[C@@H](OC(C)=O)[C@H](C)Cc1ccccc1` (relative stereo) [Example 57, [1S-[1α(4R*,5S*),3α,4β.5α,6α,7β]] 1-(4-Acetyloxy-5-methyl-3-methylene-6-phenylhexyl)-4,7-dihydroxy-6-[(nonoxycarbonyl)oxy]-2,8-dioxabicyclo[3.2.1]octane-3,4,5-tricarboxylic acid] displayed a concentration for half-maximal inhibition (IC50) against squalene synthase of under 100 nM. Further, in assay [1], the MIC lay within 0.1 to 31 µg/mL (≈ 0.141 to 43.7 µM).

The molecule `C=C(CC[C@]12O[C@H](C(=O)O)[C@@](O)(C(=O)O)[C@](C(=O)O)(O1)[C@H](OC(=O)CCCCCCCCC)[C@H]2O)[C@@H](OC(C)=O)[C@H](C)Cc1ccccc1` (relative stereo) [6-decanoate in Example 30, [1S-[1α(4R*,5S*),3α,4β,5α,6α,7β]] 1-(4-acetyloxy-5-methyl-3-methylene-6-phenylhexyl)-4,6,7-trihydroxy-2,8-dioxabicyclo[3.2.1]octane-3,4,5-tricarboxylic acid, 6-decanoate] gave a half-maximal inhibitory concentration (IC50) on squalene synthase of under 100 nM. Further, in assay [1], the MIC lay within 0.1 to 31 µg/mL (≈ 0.144 to 44.7 µM).
